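48-hour exposure; five concentrations; linearly interpolated endpoints. GI50 marks 50% less growth. TGI is the concentration that stops growth completely.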
What was measured:
Test in all cases: NCI tumour cell line growth inhibition, 48 h
SK-OV-3 ovarian = test system: SK-OV-3 ovarian
COLO 205 colon = test system: COLO 205 colon
DU-145 prostate = test system: DU-145 prostate
IGROV1 ovarian = test system: IGROV1 ovarian
SNB-75 CNS = test system: SNB-75 CNS
RPMI-8226 leukemia = test system: RPMI-8226 leukemia
SK-MEL-28 melanoma = test system: SK-MEL-28 melanoma
U251 CNS = test system: U251 CNS
EKVX NSCLC = test system: EKVX NSCLC
SNB-78 CNS = test system: SNB-78 CNS
SF-539 CNS = test system: SF-539 CNS
LXFL 529 NSCLC = test system: LXFL 529 NSCLC
DLD-1 colon = test system: DLD-1 colon

| SMILES | TGI (SK-OV-3 ovarian) [µM] | TGI (COLO 205 colon) [µM] | TGI (DU-145 prostate) [µM] | TGI (IGROV1 ovarian) [µM] | TGI (SNB-75 CNS) [µM] | TGI (RPMI-8226 leukemia) [µM] | TGI (SK-MEL-28 melanoma) [µM] | TGI (U251 CNS) [µM] | TGI (EKVX NSCLC) [µM] | TGI (SNB-78 CNS) [µM] | TGI (SF-539 CNS) [µM] | TGI (LXFL 529 NSCLC) [µM] | TGI (DLD-1 colon) [µM] | GI50 (SK-OV-3 ovarian) [µM] | GI50 (EKVX NSCLC) [µM] | GI50 (DU-145 prostate) [µM] | GI50 (IGROV1 ovarian) [µM] | GI50 (SF-539 CNS) [µM] | GI50 (SNB-75 CNS) [µM] | GI50 (SK-MEL-28 melanoma) [µM] |
| --- | --- | --- | --- | --- | --- | --- | --- | --- | --- | --- | --- | --- | --- | --- | --- | --- | --- | --- | --- | --- |
| CC(C)(C)[Si](C)(C)OCC1OC(n2cnc3c(N)ncnc32)CC1O (configuration not stated) | > 100 | > 100 | > 100 | > 100 | > 100 | > 100 | > 100 | > 100 |  |  |  |  |  |  |  |  |  |  |  |  |
| Cc1cc(C)n(-c2nsc3ccccc23)n1 |  | > 100 |  | > 100 | 98.3 | > 100 | > 100 | > 100 | > 100 | > 100 | > 100 | > 100 |  |  |  |  |  |  |  |  |
| CCN(CC)CCNc1ccc2nnn3c4ccc(C)cc4c(=O)c1c23 | 25.8 | 20.6 |  | 26.4 | 23.2 | 21.6 | 28.9 | 24.7 |  | 26.1 | 18.7 | 24.5 | 25.9 |  |  |  |  |  |  |  |
| N#CN=[N+]([O-])c1ccc(C(=O)O)cc1 | 33 |  |  | > 100 | 38.9 | 35.3 | 33.4 | 33 | 35.8 |  | 32.4 |  |  |  |  |  |  |  |  |  |
| Fc1ccc(C2CC(c3cccc(Nc4ccncc4)c3)=NN2c2ccc(Cl)cc2)cc1 (configuration not stated) | 4.53 |  | 3.21 | 3.37 | 2.8 |  | 3.24 |  | 6.33 |  | 3.07 |  |  | 1.98 | 2.11 | 1.78 | 1.78 | 1.65 | 1.25 | 1.72 |
| O=C1CSC(=S)N1 |  | > 100 | > 100 | > 100 | > 100 | > 100 | > 100 | > 100 | > 100 |  | > 100 |  |  |  |  |  |  |  |  |  |
| CC(=O)c1ccc2c(c1)c1c(C)c3c[n+](C)ccc3c(C)c1n2C | > 87 | > 100 |  | > 100 | 57.1 | 30.5 | 32.3 | 11.9 | > 100 | 35.3 | 13.9 |  | > 100 |  |  |  |  |  |  |  |
| Cc1ccc2c(c1)C(=O)N(N(C)C)CC(=O)N2 | > 100 | > 100 |  | > 100 | > 100 | > 100 | > 100 | > 100 | > 100 | > 100 | > 100 | > 100 | > 100 |  |  |  |  |  |  |  |
| NCCCOc1ccc([N+](=O)[O-])cc1Cl |  | > 100 |  | > 100 | > 100 | > 100 | > 100 | > 100 |  |  | > 100 | > 100 | > 100 |  |  |  |  |  |  |  |
| Cc1cc2c(cc1C)OC(=O)CC2 |  | > 100 | > 100 | > 100 | > 100 | > 100 | > 100 | > 100 | > 100 |  | > 100 |  |  |  |  |  |  |  |  |  |
| O=C1NC2=C(CCCC/C2=N\O)C12CCCCC2 | > 100 |  |  | > 100 | > 100 |  | > 100 | > 100 | > 100 | > 100 | > 100 | > 100 | > 100 |  |  |  |  |  |  |  |
| CC(=O)OCC1=C(C(=O)O)N2C(=O)C(NC(=O)CSc3ccncc3)C2SC1 (configuration not stated) | > 100 | > 100 | > 100 | > 100 | > 100 | > 100 | > 100 | > 100 | > 100 |  | > 100 |  |  |  |  |  |  |  |  |  |
| Brc1ccc(C2CC(c3cccc4ccccc34)=Nc3ccccc3S2)cc1 (configuration not stated) | > 100 | > 100 |  | > 100 | > 100 | 51.6 | > 100 | > 100 | > 100 | > 100 | > 100 | > 100 | > 100 |  |  |  |  |  |  |  |
| CCOC(=O)NC(Nc1ncccn1)(C(=O)OCC)C(F)(F)F (configuration not stated) |  | > 100 | > 100 | > 100 | > 100 | > 100 | > 100 | > 100 | > 100 |  | > 100 |  |  |  |  |  |  |  |  |  |
